Results taken from ChEMBL document CHEMBL1201862, “PubChem BioAssay data set” (2004).
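Five compound concentrations were applied to cells in 96-well plates for 48 hours; endpoints were derived by simple linear interpolation of the resulting dose-response curve. GI50 is the concentration that inhibits growth by half.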 Activity calls are given as the source filed them. Cut-off read from the data, not from the text of the source: active = GI50 up to about 1.1 µM and inactive = higher.

What was measured:
Experiment in all cases: inhibition of tumour cell growth, NCI panel, 48 h
U-251 = tested on: U-251
HL-60 = tested on: HL-60
T47D = tested on: T47D
MDA-MB-435 = tested on: MDA-MB-435
M14 = tested on: M14
SF-295 = tested on: SF-295
LOX IMVI = tested on: LOX IMVI
DU-145 = tested on: DU-145
NCI-H23 = tested on: NCI-H23
UACC-62 = tested on: UACC-62
Malme-3M = tested on: Malme-3M
UO-31 = tested on: UO-31
HCC 2998 = tested on: HCC 2998
NCI/ADR-RES = tested on: NCI/ADR-RES
IGROV-1 = tested on: IGROV-1
M19-MEL = tested on: M19-MEL
786-0 = tested on: 786-0
MOLT-4 = tested on: MOLT-4
RPMI-8226 = tested on: RPMI-8226
OVCAR-5 = tested on: OVCAR-5

Measured: GI50

N=C(N)NS(=O)(=O)c1ccc(NC(=O)c2cccc3c(O)c4ccccc4nc23)cc1
inactive: U-251 48 µM | HL-60 > 100 µM | T47D > 100 µM | MDA-MB-435 > 100 µM | M14 > 100 µM | SF-295 60.3 µM | LOX IMVI > 75 µM | DU-145 > 100 µM | NCI-H23 > 92.3 µM | UACC-62 > 100 µM | Malme-3M > 100 µM | UO-31 > 100 µM | HCC 2998 > 71.8 µM | NCI/ADR-RES > 100 µM | IGROV-1 81.5 µM | M19-MEL > 100 µM | 786-0 58.1 µM | MOLT-4 > 83 µM | RPMI-8226 > 100 µM | OVCAR-5 99.3 µM

O=c1/c(=C/c2ccccc2[N+](=O)[O-])sc2nc3ccccc3n12
inactive: U-251 19.9 µM | HL-60 41.1 µM | M14 39.7 µM | SF-295 18.8 µM | LOX IMVI 17.1 µM | NCI-H23 28.6 µM | UACC-62 64.7 µM | Malme-3M 42.2 µM | UO-31 > 46.5 µM | HCC 2998 30.8 µM | IGROV-1 30.5 µM | M19-MEL 28.6 µM | 786-0 24.5 µM | MOLT-4 > 46.1 µM | RPMI-8226 12.6 µM | OVCAR-5 > 46.5 µM

CC(=O)OCC1OC(n2c(=O)n(-c3ccccc3)c(=O)c3cc(Br)cc(Br)c32)C(OC(C)=O)C(OC(C)=O)C1OC(C)=O (configuration not stated)
inactive: U-251 71 µM | HL-60 > 100 µM | M14 > 100 µM | SF-295 12 µM | LOX IMVI > 100 µM | NCI-H23 > 100 µM | UACC-62 > 100 µM | Malme-3M > 100 µM | UO-31 > 100 µM | HCC 2998 > 100 µM | IGROV-1 > 100 µM | M19-MEL > 100 µM | 786-0 > 100 µM | MOLT-4 > 100 µM | RPMI-8226 > 100 µM | OVCAR-5 > 100 µM

Cc1ccccc1C1OC(=O)c2ccc3ccccc3c21 (configuration not stated)
inactive: U-251 3.57 µM | HL-60 2.79 µM | M14 2.97 µM | SF-295 7.35 µM | LOX IMVI 2.57 µM | NCI-H23 5.71 µM | UACC-62 2.94 µM | Malme-3M 5.56 µM | UO-31 2.77 µM | HCC 2998 4 µM | IGROV-1 5 µM | M19-MEL 3.27 µM | 786-0 4.57 µM | MOLT-4 2.23 µM | RPMI-8226 1.61 µM | OVCAR-5 8.57 µM

CSc1ccc(N2C(=O)C3c4[nH]c5ccccc5c4C4CCC(C(C)(C)C)CC4C3C2=O)cc1 (configuration not stated)
inactive: U-251 16.4 µM | HL-60 13.7 µM | M14 27.5 µM | SF-295 14.3 µM | LOX IMVI 14 µM | NCI-H23 15.5 µM | UACC-62 13.8 µM | Malme-3M 12.3 µM | UO-31 16.5 µM | HCC 2998 15.6 µM | IGROV-1 13.8 µM | M19-MEL 31.9 µM | 786-0 14.9 µM | MOLT-4 15.4 µM | RPMI-8226 28.4 µM | OVCAR-5 48.3 µM

C/C(CC(=O)Nc1ccc(NC(=O)/C(C)=N/NS(=O)(=O)c2ccc(C)cc2)cc1)=N\NS(=O)(=O)c1ccc(C)cc1
inactive: U-251 > 100 µM | HL-60 > 100 µM | M14 > 100 µM | SF-295 > 100 µM | LOX IMVI > 100 µM | NCI-H23 > 100 µM | UACC-62 > 100 µM | Malme-3M > 100 µM | UO-31 > 100 µM | HCC 2998 > 100 µM | IGROV-1 > 100 µM | M19-MEL > 100 µM | 786-0 > 100 µM | MOLT-4 > 100 µM | RPMI-8226 > 100 µM | OVCAR-5 > 100 µM

O=S1OC(c2ccccc2)(c2ccccc2)C(c2ccccc2)(c2ccccc2)O1
inactive: U-251 25.1 µM | HL-60 7.96 µM | M14 > 100 µM | SF-295 14.1 µM | LOX IMVI 2.56 µM | NCI-H23 > 52.7 µM | UACC-62 > 100 µM | Malme-3M > 100 µM | UO-31 > 29.7 µM | HCC 2998 > 100 µM | IGROV-1 > 100 µM | M19-MEL > 86.7 µM | 786-0 > 100 µM | MOLT-4 5.26 µM | RPMI-8226 5.15 µM | OVCAR-5 > 100 µM

c1ccc(C2OC3(CCC[C@H]4C[C@H]43)O[C@H]2c2ccccc2)cc1 (some centres not stated)
inactive: U-251 41.1 µM | HL-60 19.8 µM | M14 43.9 µM | SF-295 46.3 µM | LOX IMVI 24.2 µM | NCI-H23 38.6 µM | UACC-62 57.3 µM | Malme-3M 34.5 µM | UO-31 38.7 µM | HCC 2998 39.9 µM | IGROV-1 > 100 µM | M19-MEL 32.2 µM | 786-0 57 µM | MOLT-4 25.8 µM | RPMI-8226 40.3 µM | OVCAR-5 60.8 µM
